In patent publication US20210087191A1, “SUBSTITUTED 3-ISOBUTYL-9,10-DIMETHOXY-1,3,4,6,7,11B-HEXAHYDRO-2H-PYRIDO[2,1-a]ISOQUINOLIN-2-OL COMPOUNDS, THEIR [sequence], AND USE THEREOF” (DISPERSOL TECHNOLOGIES, LLC, priority 2020, published 2021):
≈ marks a conversion by molar mass, not a printed value. Structures can show the parent of a compound that is named as a salt. Where two headings read alike, the source gives them in different places.

Key:
[1] = Kinetic solubility in PBS buffer; format: physicochemical; conditions: aqueous buffer, kinetic from dmso stock, compound suspended at 300 μM, 25° C.
Description: Kinetic solubility was determined by suspending compound at 300 μM at pH 1.2 and 7.4 in PBS buffer. The suspension was equilibrated by shaking at 25° C. at 1100 RPM for 2 hours and then pH was measured following filtration. The filtrate was then diluted by an appropriate factor (e.g. 100-fold). Quantitation was done by LC-MS/MS with reference to a standard solution.

[2] = Stability in human plasma (PS), LC-MS/MS; format: in vitro ADME; conditions: for half-life: read-out: Human PS t1/2
Description: (§1) Metabolism of compound(s) to release (+)-α-DTHBZ was determined by the half-life (t1/2) and intrinsic clearance (CIint) in human plasma (PS) and liver microsomes (LM) using tandem mass spectrometry (LC-MS/MS).

[3] = Metabolic stability in human liver microsomes (LM), LC-MS/MS (first table); format: in vitro ADME; conditions: for microsomal CLint: Table 1, read-out: Human LM CLint (μL/min/mg protein); for half-life: Table 1, read-out: Human LM t1/2
Description: as §1

[4] = Permeability in Caco-2 cell monolayer; format: in vitro ADME; conditions: human; for efflux ratio: Caco-2; for Papp A→B: Caco-2, apical to basolateral; for Papp B→A: Caco-2, basolateral to apical
Description: The intestinal permeability of compound(s) was evaluated in Caco-2 cells by assessing transport across the cell monolayer in the apical to basolateral (A-B) direction. Active efflux was also assessed by measuring transport in the basolateral to apical (BA) direction which enables evaluation of the efflux ratio. Analysis of transport is quantified by tandem mass spectrometry (LC-MS/MS).

[5] = Heps. stability assay, human cryopreserved hepatocytes; format: in vitro ADME; conditions: for microsomal CLint: read-out: Heps. stability assay Human Clint (μL/min/mg protein); for half-life: read-out: Heps. stability assay Human t1/2
Description: Metabolism of compound(s) to release (+)-α-DTHBZ was determined by the half-life (t1/2) and intrinsic clearance (CIint) in human cryopreserved hepatocytes using tandem mass spectrometry (LC-MS/MS).

[6] = LM stability assay, human (second table); format: in vitro ADME; conditions: human liver microsomes, Table 2; for microsomal CLint: read-out: LM stability assay Human Clint (μL/min/mg protein); for half-life: read-out: LM stability assay Human t1/2
Description: Metabolism of compound(s) to release (+)-α-DTHBZ was determined by the half-life (t1/2) and intrinsic clearance (CIint) in human liver microsomes (LM) using tandem mass spectrometry (LC-MS/MS).

[7] = pH 1.2, PBS buffer, read-out: Kinetic Solubility pH = 1.2 (300 μM)
[8] = pH 7.4, PBS buffer, read-out: Kinetic Solubility pH = 7.4 (300 μM)

Row | SMILES | half-life [2] | microsomal CLint [3] | half-life [3] | other results
1 | COc1cc2c(cc1OC)[C@H]1C[C@@H](OC(=O)/C=C/C(=O)N[C@@H](Cc3ccccc3)C(=O)O)[C@H](CC(C)C)CN1CC2 [Example 12, (2S)-2-[(2E)-4-[[(2R,3R,11bR)-9,10-dimethoxy-3-(2-methylpropyl)-1H,2H,3H,4H,6H,7H,11bH-pyrido[2,1-a]isoquinolin-2-yl]oxy]-4-oxobut-2-enamido]-3-phenylpropanoic acid] | 0.238 h | 1.42 µL/min/mg | 11.5 h | solubility kinetic at 2 h [1, 7]: 320 µM (≈ 181 µg/mL); solubility kinetic at 2 h [1, 8]: 306 µM (≈ 173 µg/mL); efflux ratio [4]: 85.4; Papp A→B [4]: 0.13 ×10⁻⁶ cm/s; Papp B→A [4]: 11.3 ×10⁻⁶ cm/s; microsomal CLint [5]: 6.27 µL/min/mg; half-life [5]: 3.69 h; microsomal CLint [6]: 2.38 µL/min/mg; half-life [6]: 8.91 h
2 | COc1cc2c(cc1OC)[C@H]1C[C@@H](OC(=O)NC(C)C)[C@H](CC(C)C)CN1CC2 [Example 22, (2R,3R,11bR)-9,10-dimethoxy-3-(2-methylpropyl)-1H,2H,3H,4H,6H,7H,11bH-pyrido[2,1-a]isoquinolin-2-yl N-isopropylcarbamate] | > 65.5 h | 5.15 µL/min/mg | 2.31 h | –
3 | COc1cc2c(cc1OC)[C@H]1C[C@@H](OC(=O)OCOC(=O)CC(C)C)[C@H](CC(C)C)CN1CC2 [Example 26, [([[(2R,3R,11bR)-9,10-dimethoxy-3-(2-methylpropyl)-1H,2H,3H,4H,6H,7H,11bH-pyrido[2,1-a]isoquinolin-2-yl]oxy]carbonyl)oxy]methyl 3-methylbutanoate] | 1.39 h | 1380 µL/min/mg | 0.00833 h | –
4 | COc1cc2c(cc1OC)[C@H]1C[C@@H](OC(=O)C(=O)O[C@@H]3C[C@@H]4c5cc(OC)c(OC)cc5CCN4C[C@H]3CC(C)C)[C@H](CC(C)C)CN1CC2 [Example 20, Bis[(2R,3R,11bR)-9,10-dimethoxy-3-(2-methylpropyl)-1H,2H,3H,4H,6H,7H,11bH-pyrido[2,1-a]isoquinolin-2-yl] oxalate] | 1.35 h | 3.83 µL/min/mg | 3.2 h | –
5 | COc1cc2c(cc1OC)[C@H]1C[C@@H](OC(=O)/C=C/C(=O)O[C@@H]3C[C@@H]4c5cc(OC)c(OC)cc5CCN4C[C@H]3CC(C)C)[C@H](CC(C)C)CN1CC2 [Example 18, bis[(2R,3R,11bR)-9,10-dimethoxy-3-(2-methylpropyl)-1H,2H,3H,4H,6H,7H,11bH-pyrido[2,1-a]isoquinolin-2-yl] (2E)-but-2-enedioate] | > 11 h | 1.11 µL/min/mg | 20.8 h | –
6 | COc1cc2c(cc1OC)[C@@H]1C[C@H](OC(=O)C(=O)O)[C@@H](CC(C)C)CN1CC2 (stereo in doubt) [Example 1, (2S,3S,11bS)-9,10-dimethoxy-3-(2-methylpropyl)-1H,2H,3H,4H,6H,7H,11bH-pyrido[2,1-a]isoquinolin-2-yl hydrogen oxalate] | – | 3.24 µL/min/mg | 6.91 h | Human PS t1/2 (min) [2]: ∞
7 | COc1cc2c(cc1OC)[C@H]1C[C@@H](OC(=O)/C=C/C(=O)N[C@H](C(=O)O)C(C)C)[C@H](CC(C)C)CN1CC2 [Example 11, (2S)-2-[(2E)-4-[[(2R,3R,11bR)-9,10-dimethoxy-3-(2-methylpropyl)-1H,2H,3H,4H,6H,7H,11bH-pyrido[2,1-a]isoquinolin-2-yl]oxy]-4-oxobut-2-enamido]-3-methylbutanoic acid] | 0.225 h | 4.24 µL/min/mg | 2.95 h | –
8 | CCNC(=O)O[C@@H]1C[C@@H]2c3cc(OC)c(OC)cc3CCN2C[C@H]1CC(C)C [Example 21, (2R,3R,11bR)-9,10-dimethoxy-3-(2-methylpropyl)-1H,2H,3H,4H,6H,7H,11bH-pyrido[2,1-a]isoquinolin-2-yl N-ethylcarbamate] | > 341 h | 1.67 µL/min/mg | 8.05 h | –

Further lines, with some results ahead:

Row | half-life [2] | microsomal CLint [3] | half-life [3] | SMILES | other results
9 | 1.42 h | – | – | CCC(=O)OCOC(=O)O[C@@H]1C[C@@H]2c3cc(OC)c(OC)cc3CCN2C[C@H]1CC(C)C [Example 24, [([[(2R,3R,11bR)-9,10-dimethoxy-3-(2-methylpropyl)-1H,2H,3H,4H,6H,7H,11bH-pyrido[2,1-a]isoquinolin-2-yl]oxy]carbonyl)oxy]methylpropanoate] | –
10 | 0.2 h | 2.91 µL/min/mg | 4.16 h | COc1cc2c(cc1OC)[C@H]1C[C@@H](OC(=O)/C=C\C(=O)N[C@@H](Cc3ccccc3)C(=O)O)[C@H](CC(C)C)CN1CC2 [Example 14, (2S)-2-[(2Z)-4-[[(2R,3R,11bR)-9,10-dimethoxy-3-(2-methylpropyl)-1H,2H,3H,4H,6H,7H,11bH-pyrido[2,1-a]isoquinolin-2-yl]oxy]-4-oxobut-2-enamido]-3-phenylpropanoic acid] | –
11 | > 11.8 h | 98 µL/min/mg | 0.118 h | COc1cc2c(cc1OC)[C@H]1C[C@@H](OC(=O)/C=C/C(=O)OC(C)C)[C@H](CC(C)C)CN1CC2 [Example 8, (2R,3R,11bR)-9,10-dimethoxy-3-(2-methylpropyl)-1H,2H,3H,4H,6H,7H,11bH-pyrido[2,1-a]isoquinolin-2-yl 1-isopropyl (2E)-but-2-enedioate] | –
12 | – | 16.3 µL/min/mg | 0.708 h | COc1cc2c(cc1OC)[C@H]1C[C@@H](OC(=O)c3cncc(C(=O)OC(C)C)c3)[C@H](CC(C)C)CN1CC2 [Example 9, 3-((2R,3R,11bR)-3-isobutyl-9,10-dimethoxy-1,3,4,6,7,11b-hexahydro-2H-pyrido[2,1-a]isoquinolin-2-yl) 5-isopropyl pyridine-3,5-dicarboxylate] | solubility kinetic at 2 h [1, 7]: 292 µM (≈ 149 µg/mL); solubility kinetic at 2 h [1, 8]: 0.0018 µM (≈ 0.000919 µg/mL); Human PS t1/2 (min) [2]: ∞; efflux ratio [4]: 0.95; Papp A→B [4]: 0.202 ×10⁻⁶ cm/s; Papp B→A [4]: 0.191 ×10⁻⁶ cm/s; microsomal CLint [5]: 121 µL/min/mg; half-life [5]: 0.191 h; microsomal CLint [6]: 613 µL/min/mg; half-life [6]: 0.0188 h
13 | 134 h | 0.84 µL/min/mg | > 13.7 h | COc1cc2c(cc1OC)[C@H]1C[C@@H](OC(=O)/C=C\C(=O)O[C@@H]3C[C@@H]4c5cc(OC)c(OC)cc5CCN4C[C@H]3CC(C)C)[C@H](CC(C)C)CN1CC2 [Example 19, bis[(2R,3R,11bR)-9,10-dimethoxy-3-(2-methylpropyl)-1H,2H,3H,4H,6H,7H,11bH-pyrido[2,1-a]isoquinolin-2-yl] (2Z)-but-2-enedioate] | –
14 | > 3770 h | 104 µL/min/mg | 0.111 h | COc1cc2c(cc1OC)[C@H]1C[C@@H](OC(=O)/C=C\C(=O)OC(C)C)[C@H](CC(C)C)CN1CC2 [Example 10, (2R,3R,11bR)-9,10-dimethoxy-3-(2-methylpropyl)-1H,2H,3H,4H,6H,7H,11bH-pyrido[2,1-a]isoquinolin-2-yl 1-isopropyl (2Z)-but-2-enedioate] | –
15 | 1.98 h | – | – | COc1cc2c(cc1OC)[C@H]1C[C@@H](OC(=O)OCOC(=O)C(C)C)[C@H](CC(C)C)CN1CC2 [Example 25, [([[(2R,3R,11bR)-9,10-dimethoxy-3-(2-methylpropyl)-1H,2H,3H,4H,6H,7H,11bH-pyrido[2,1-a]isoquinolin-2-yl]oxy]carbonyl)oxy]methyl 2-methylpropanoate] | –
16 | 55 h | < 3.4 µL/min/mg | > 3.39 h | COc1cc2c(cc1OC)[C@H]1C[C@@H](OC(=O)/C=C\C(=O)O)[C@H](CC(C)C)CN1CC2 [Example 4, (2Z)-4-[[(2R,3R,11bR)-9,10-dimethoxy-3-(2-methylpropyl)-1H,2H,3H,4H,6H,7H,11bH-pyrido[2,1-a]isoquinolin-2-yl]oxy]-4-oxobut-2-enoic acid] | –
17 | 12.7 h | – | – | COc1cc2c(cc1OC)[C@@H]1C[C@H](OC(=O)/C=C/C(=O)O)[C@@H](CC(C)C)CN1CC2 (stereo in doubt) [Example 3, (2E)-4-[[(2S,3S,11bS)-9,10-dimethoxy-3-(2-methylpropyl)-1H,2H,3H,4H,6H,7H,11bH-pyrido[2,1-a]isoquinolin-2-yl]oxy]-4-oxobut-2-enoic acid] | Human LM t1/2 (min) ([3]; Table 1): ∞
